Results published in US20260000656A1, “ANTIFUNGAL AGENTS WITH ENHANCED ACTIVITY IN ACIDIC PH” (Scynexis, Inc., priority 2017, published 2026).
In brackets after ≈: the same amount, converted by molar mass. Like-named read-outs stand apart in the source and are kept apart here. Numbered stars: 1 amine (or outer) side, 2 acyl side, 3 side chain; on linkers, the order of the positions; unused ones are H or OH. Bridge positions count the residues as written; N and C are the ends. Square brackets hold non-standard residues; d marks the D form. Peptide text beside a SMILES is read from it. * marks the point of attachment. hTyr(3S-OH,4S-OH,3'-OSO3H) = N[C@H](C(=O)O)[C@H](O)[C@@H](O)c1ccc(O)c(OS(=O)(=O)O)c1; Orn(4R-OH,5R-OH) = O=C([C@H](C[C@@H](O)[C@@H](O)N[*:3])N[*:1])[*:2]; Pro(3S-OH,4S-Me) = C[C@H]1CN[C@H](C(=O)O)[C@H]1O; X1 = CCCCCOc1ccc(-c2cc(-c3ccc(C(=O)*)cc3)no2)cc1; Gln(3R-OH) = NC(=O)C[C@@H](O)[C@H](N)C(=O)O; Hyp = O=C(O)[C@@H]1C[C@@H](O)CN1

Test system: C. glabrata isolates
Experiment: Broth microdilution susceptibility (CLSI M27-A3) at different medium pH
Type: cell-based, Candida glabrata
Conditions: for MIC range: 50% inhibition, 10 vaginal isolates; for MIC50 / MIC90 / MIC: Nakaseomyces glabratus, 24 h
Description: Ten strains each of C. glabrata and C. albicans vaginal isolates were tested. The strains were obtained from recent clinical trial patients with vulvovaginal candidiasis (VVC) prior to treatment. Candida strains were obtained from the Mycology Reference Library (MRL) at Case Western Reserve University School of Medicine, Ohio, United States.
Susceptibility testing was performed using a broth microdilution method, according to CLSI M27-A3 guidelines (CLSI. 2008. Reference Method for Broth Dilution Antifungal Susceptibility Testing of Yeasts; Approved Standard—Third Edition. Clinical and Laboratory Standards Institute, CLSI document M27-A3). Antifungals and concentrations tested were SCY-078 and micafungin (both at concentrations within the range of 0.015 to 8 μg/ml) and fluconazole (at concentrations within the range of 0.125 to 64 μg/ml). A 0.1-ml C. albicans and C. glabrata inoculum of 0.5-2.5×10^3 blastospores/ml in RPMI 1640 medium was added to each microdilution well. ATCC strains of Candida parapsilosis and Candida krusei QC isolates were also included concurrently to ensure quality control. Antifungal susceptibility testing was carried out for each isolate in RPMI 1640 at pH 7 (to mimic RPMI medium used in testing the susceptibility of yeast by the CLSI M-27A3 document), pH 5.7, and pH 4.5 (to mimic the pH of the vaginal cavity) by adjusting the pH of the media using NaOH or HCl. […] Agents Chemother., 43: 1383-1386 (1999).
[…] SCY-078 powder was manufactured by Avista, Laboratories, NC. Micafungin and fluconazole were sourced from LGM Pharma.

`CCCCCOc1ccc(-c2cc(-c3ccc(C(=O)N[C@H]4C[C@@H](O)[C@@H](O)NC(=O)[C@@H]5[C@@H](O)[C@@H](C)CN5C(=O)[C@H]([C@H](O)CC(N)=O)NC(=O)[C@H]([C@H](O)[C@@H](O)c5ccc(O)c(OS(=O)(=O)O)c5)NC(=O)[C@@H]5C[C@@H](O)CN5C(=O)[C@H]([C@@H](C)O)NC4=O)cc3)no2)cc1` [Micafungin, reference compound] (X1-[Orn(4R-OH,5R-OH)]T[Hyp][hTyr(3S-OH,4S-OH,3'-OSO3H)][Gln(3R-OH)][Pro(3S-OH,4S-Me)]; lactam 1-C) showed an MIC range (pH 4.5, 24 h) of 0.25 mg/L (≈ 0.197 µM), an MIC range (pH 5.72, 24 h) of 0.25 mg/L (≈ 0.197 µM) and an MIC range (pH 7.0, 24 h) of 0.25 to 0.5 mg/L. The MIC50 (pH 4.5) was 0.25 mg/L (≈ 0.197 µM), the MIC90 (pH 4.5) was 0.25 mg/L (≈ 0.197 µM) and the MIC (pH 4.5, read-out: MIC (50% inhibition), C. glabrata MRL 32075, pH 4.5, 24 hours) was 0.25 mg/L (≈ 0.197 µM). The MIC (pH 4.5, read-out: MIC (50% inhibition), C. glabrata MRL 32232, pH 4.5, 24 hours) was 0.25 mg/L (≈ 0.197 µM), the MIC (pH 4.5, read-out: MIC (50% inhibition), C. glabrata MRL 32626, pH 4.5, 24 hours) was 0.25 mg/L (≈ 0.197 µM) and the MIC (pH 4.5, read-out: MIC (50% inhibition), C. glabrata MRL 32993, pH 4.5, 24 hours) was 0.25 mg/L (≈ 0.197 µM). For the same compound, the MIC (pH 4.5, read-out: MIC (50% inhibition), C. glabrata MRL 33204, pH 4.5, 24 hours) was 0.25 mg/L (≈ 0.197 µM), the MIC (pH 4.5, read-out: MIC (50% inhibition), C. glabrata MRL 33960, pH 4.5, 24 hours) was 0.25 mg/L (≈ 0.197 µM) and the MIC (pH 4.5, read-out: MIC (50% inhibition), C. glabrata MRL 33961, pH 4.5, 24 hours) was 0.25 mg/L (≈ 0.197 µM). The MIC (pH 4.5, read-out: MIC (50% inhibition), C. glabrata MRL 34339, pH 4.5, 24 hours) was 0.25 mg/L (≈ 0.197 µM), the MIC (pH 4.5, read-out: MIC (50% inhibition), C. glabrata MRL 34407, pH 4.5, 24 hours) was 0.25 mg/L (≈ 0.197 µM) and the MIC (pH 4.5, read-out: MIC (50% inhibition), C. glabrata MRL 34576, pH 4.5, 24 hours) was 0.25 mg/L (≈ 0.197 µM). It also gave an MIC50 (pH 5.72) of 0.25 mg/L (≈ 0.197 µM), an MIC90 (pH 5.72) of 0.25 mg/L (≈ 0.197 µM) and an MIC (pH 5.72, read-out: MIC (50% inhibition), C. glabrata MRL 32075, pH 5.72, 24 hours) of 0.25 mg/L (≈ 0.197 µM). It also gave an MIC (pH 5.72, read-out: MIC (50% inhibition), C. glabrata MRL 32232, pH 5.72, 24 hours) of 0.25 mg/L (≈ 0.197 µM), an MIC (pH 5.72, read-out: MIC (50% inhibition), C. glabrata MRL 32626, pH 5.72, 24 hours) of 0.25 mg/L (≈ 0.197 µM) and an MIC (pH 5.72, read-out: MIC (50% inhibition), C. glabrata MRL 32993, pH 5.72, 24 hours) of 0.25 mg/L (≈ 0.197 µM). The MIC (pH 5.72, read-out: MIC (50% inhibition), C. glabrata MRL 33204, pH 5.72, 24 hours) was 0.25 mg/L (≈ 0.197 µM), the MIC (pH 5.72, read-out: MIC (50% inhibition), C. glabrata MRL 33960, pH 5.72, 24 hours) was 0.25 mg/L (≈ 0.197 µM) and the MIC (pH 5.72, read-out: MIC (50% inhibition), C. glabrata MRL 33961, pH 5.72, 24 hours) was 0.25 mg/L (≈ 0.197 µM). It also gave an MIC (pH 5.72, read-out: MIC (50% inhibition), C. glabrata MRL 34339, pH 5.72, 24 hours) of 0.25 mg/L (≈ 0.197 µM), an MIC (pH 5.72, read-out: MIC (50% inhibition), C. glabrata MRL 34407, pH 5.72, 24 hours) of 0.25 mg/L (≈ 0.197 µM) and an MIC (pH 5.72, read-out: MIC (50% inhibition), C. glabrata MRL 34576, pH 5.72, 24 hours) of 0.25 mg/L (≈ 0.197 µM). The MIC50 (pH 7) was 0.25 mg/L (≈ 0.197 µM), the MIC90 (pH 7) was 0.5 mg/L (≈ 0.394 µM) and the MIC (pH 7, read-out: MIC (50% inhibition), C. glabrata MRL 32075, pH 7.0, 24 hours) was 0.25 mg/L (≈ 0.197 µM). The MIC (pH 7, read-out: MIC (50% inhibition), C. glabrata MRL 32232, pH 7.0, 24 hours) was 0.5 mg/L (≈ 0.394 µM), the MIC (pH 7, read-out: MIC (50% inhibition), C. glabrata MRL 32626, pH 7.0, 24 hours) was 0.5 mg/L (≈ 0.394 µM) and the MIC (pH 7, read-out: MIC (50% inhibition), C. glabrata MRL 32993, pH 7.0, 24 hours) was 0.25 mg/L (≈ 0.197 µM). It also gave an MIC (pH 7, read-out: MIC (50% inhibition), C. glabrata MRL 33204, pH 7.0, 24 hours) of 0.25 mg/L (≈ 0.197 µM), an MIC (pH 7, read-out: MIC (50% inhibition), C. glabrata MRL 33960, pH 7.0, 24 hours) of 0.5 mg/L (≈ 0.394 µM) and an MIC (pH 7, read-out: MIC (50% inhibition), C. glabrata MRL 33961, pH 7.0, 24 hours) of 0.25 mg/L (≈ 0.197 µM). It also gave an MIC (pH 7, read-out: MIC (50% inhibition), C. glabrata MRL 34339, pH 7.0, 24 hours) of 0.25 mg/L (≈ 0.197 µM), an MIC (pH 7, read-out: MIC (50% inhibition), C. glabrata MRL 34407, pH 7.0, 24 hours) of 0.25 mg/L (≈ 0.197 µM) and an MIC (pH 7, read-out: MIC (50% inhibition), C. glabrata MRL 34576, pH 7.0, 24 hours) of 0.25 mg/L (≈ 0.197 µM).
